Test system: SW 982 tumor spheroid viability
Test: Anticancer human tumor SW 982 cell line growth inhibition;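 also: spheroids exposed to compound for 7 days before readout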
Details: spheroids with HUVEC and MSC; for IC50: curve of first compound; for viability, T/C: stronger effect = lower value
Summary of the method: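 Single agents and combinations were tested on spheroids built from tumor cells plus HUVEC and hMSC, at half-log dilutions starting at or near clinical Cmax, else 10 microM; final DMSO 0.25% (v/v).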

[1] = second compound 0.003 µM, first compound 0.0316 µM
[2] = second compound 0.003 µM, first compound 0.1 µM
[3] = second compound 0.003 µM, first compound 0.316 µM
[4] = second compound 0.003 µM, first compound 1 µM
[5] = second compound 0.003 µM, first compound 3.16 µM
[6] = second compound 0.003 µM, first compound 10 µM
[7] = second compound 0.00949 µM, first compound 0.0316 µM
[8] = second compound 0.00949 µM, first compound 0.1 µM
[9] = second compound 0.00949 µM, first compound 0.316 µM
[10] = second compound 0.00949 µM, first compound 1 µM
[11] = second compound 0.00949 µM, first compound 3.16 µM
[12] = second compound 0.00949 µM, first compound 10 µM
[13] = second compound 0.03 µM, first compound 0.0316 µM
[14] = second compound 0.03 µM, first compound 0.1 µM
[15] = second compound 0.03 µM, first compound 0.316 µM
[16] = second compound 0.03 µM, first compound 1 µM
[17] = second compound 0.03 µM, first compound 3.16 µM
[18] = second compound 0.03 µM, first compound 10 µM
[19] = second compound 0.0949 µM, first compound 0.0316 µM
[20] = second compound 0.0949 µM, first compound 0.1 µM
[21] = second compound 0.0949 µM, first compound 0.316 µM
[22] = second compound 0.0949 µM, first compound 1 µM
[23] = second compound 0.0949 µM, first compound 3.16 µM
[24] = second compound 0.0949 µM, first compound 10 µM
[25] = second compound 0.3 µM, first compound 0.0316 µM
[26] = second compound 0.3 µM, first compound 0.1 µM
[27] = second compound 0.3 µM, first compound 0.316 µM
[28] = second compound 0.3 µM, first compound 1 µM
[29] = second compound 0.3 µM, first compound 3.16 µM
[30] = second compound 0.3 µM, first compound 10 µM

SMILES | IC50 (second compound 0.003 µM) | IC50 (second compound 0.00949 µM) | IC50 (second compound 0.03 µM) | IC50 (second compound 0.0949 µM) | IC50 (second compound 0.3 µM) | viability, T/C [1] | viability, T/C [2] | viability, T/C [3] | viability, T/C [4] | viability, T/C [5] | viability, T/C [6] | viability, T/C [7] | viability, T/C [8] | viability, T/C [9] | viability, T/C [10] | viability, T/C [11] | viability, T/C [12] | viability, T/C [13] | viability, T/C [14] | viability, T/C [15] | further results
CC(C)n1c(=O)n(C)c2cnc3cc(F)c(-c4ccc(OCCCN5CCCCC5)nc4)cc3c21 + CC[C@@]1(O)C(=O)OCc2c1cc1n(c2=O)Cc2cc3c(CN(C)C)c(O)ccc3nc2-1 | 1.57 µM | 1.53 µM | 0.952 µM | 0.513 µM | 0.0768 µM | 80.2% | 77% | 78.9% | 62.5% | 30.2% | 20.3% | 71.6% | 79.7% | 64% | 61.4% | 34.4% | 18.4% | 71.6% | 81% | 59.4% | viability, T/C [16]: 53.6%; viability, T/C [17]: 25.1%; viability, T/C [18]: 17.1%; viability, T/C [19]: 72.6%; viability, T/C [20]: 65.5%; viability, T/C [21]: 58.6%; viability, T/C [22]: 39.3%; viability, T/C [23]: 24.9%; viability, T/C [24]: 15.9%; viability, T/C [25]: 56.4%; viability, T/C [26]: 46.2%; viability, T/C [27]: 40.8%; viability, T/C [28]: 30%; viability, T/C [29]: 18.6%; viability, T/C [30]: 14.5%
CC1COCCN1c1cc(-c2ccnn2C)c2ccnc(-c3ccn[nH]3)c2n1 (stereo not given) + CC[C@@]1(O)C(=O)OCc2c1cc1n(c2=O)Cc2cc3c(CN(C)C)c(O)ccc3nc2-1 | < 0.0316 µM | < 0.0316 µM | < 0.0316 µM | < 0.0316 µM | < 0.0316 µM | 24.8% | 17.2% | 12.2% | 7.73% | 9.86% | 13.6% | 16.3% | 14.9% | 10.3% | 8.21% | 9.89% | 12.6% | 18.2% | 10.3% | 8.15% | viability, T/C [16]: 7.1%; viability, T/C [17]: 10.2%; viability, T/C [18]: 13.3%; viability, T/C [19]: 12.1%; viability, T/C [20]: 11.4%; viability, T/C [21]: 9.49%; viability, T/C [22]: 8.79%; viability, T/C [23]: 9.28%; viability, T/C [24]: 12%; viability, T/C [25]: 12.1%; viability, T/C [26]: 8.63%; viability, T/C [27]: 7.14%; viability, T/C [28]: 6.54%; viability, T/C [29]: 7.28%; viability, T/C [30]: 7.84%
COc1cc(C)[nH]c(=O)c1CN1CCc2c(Cl)cc(C(OC)C3COC3)c(Cl)c2C1=O (stereo not given) + CC[C@@]1(O)C(=O)OCc2c1cc1n(c2=O)Cc2cc3c(CN(C)C)c(O)ccc3nc2-1 | > 10 µM | > 10 µM | > 10 µM | > 10 µM | < 0.0316 µM | 87.8% | 81.4% | 90.5% | 89.8% | 87.8% | 90.4% | 74.8% | 77.3% | 75.1% | 79.4% | 82.7% | 83% | 77.7% | 66.8% | 70.8% | viability, T/C [16]: 75.8%; viability, T/C [17]: 69%; viability, T/C [18]: 72.5%; viability, T/C [19]: 58.2%; viability, T/C [20]: 56%; viability, T/C [21]: 65%; viability, T/C [22]: 63%; viability, T/C [23]: 66%; viability, T/C [24]: 76.5%; viability, T/C [25]: 49.4%; viability, T/C [26]: 47.2%; viability, T/C [27]: 42.9%; viability, T/C [28]: 41.2%; viability, T/C [29]: 48.2%; viability, T/C [30]: 52.4%
COc1ccc([C@@H](O)c2cc(-c3ncnc4cc(N5CCOCC5)ccc34)c(F)cc2Cl)nn1 + CC[C@@]1(O)C(=O)OCc2c1cc1n(c2=O)Cc2cc3c(CN(C)C)c(O)ccc3nc2-1 | 4.47 µM | 2.15 µM | 1.19 µM | 0.524 µM | 0.13 µM | 96.9% | 95.5% | 92.1% | 90.9% | 59.8% | 27.1% | 86.4% | 78.5% | 80.7% | 72.2% | 38.9% | 15% | 73.8% | 76.2% | 70.3% | viability, T/C [16]: 53.9%; viability, T/C [17]: 26.8%; viability, T/C [18]: 12.8%; viability, T/C [19]: 70.6%; viability, T/C [20]: 68.8%; viability, T/C [21]: 60.5%; viability, T/C [22]: 36.6%; viability, T/C [23]: 18.5%; viability, T/C [24]: 12.8%; viability, T/C [25]: 52.2%; viability, T/C [26]: 55.7%; viability, T/C [27]: 40.6%; viability, T/C [28]: 23.2%; viability, T/C [29]: 13.1%; viability, T/C [30]: 10.2%
[2H]c1nc(C)nc([2H])c1-c1cc(NC[C@@H](C)c2cccc3c(C(=O)NC)ccnc23)ncn1 + CC[C@@]1(O)C(=O)OCc2c1cc1n(c2=O)Cc2cc3c(CN(C)C)c(O)ccc3nc2-1 | > 10 µM | > 10 µM | > 10 µM | > 10 µM | > 10 µM | 90.1% | 97.5% | 103% | 104% | 101% | 101% | 89.1% | 89.4% | 89.2% | 95.2% | 82.1% | 78% | 77.4% | 78% | 83.7% | viability, T/C [16]: 84.8%; viability, T/C [17]: 95.4%; viability, T/C [18]: 81.8%; viability, T/C [19]: 69.7%; viability, T/C [20]: 72.5%; viability, T/C [21]: 76.5%; viability, T/C [22]: 70.9%; viability, T/C [23]: 84.5%; viability, T/C [24]: 73.5%; viability, T/C [25]: 58.2%; viability, T/C [26]: 55.4%; viability, T/C [27]: 54.3%; viability, T/C [28]: 62.5%; viability, T/C [29]: 45.1%; viability, T/C [30]: 52.1%

— PubChem BioAssay AID1845216 (Molecular Pharmacology Branch, DTP, NCI, 2023)
